pIC50: −log10 of the molar value.
Experiments:
ATM = target: T1, ATM (Homo sapiens, UniProt Q13315); test: ATM inhibition test (phosphorylation of Chk2 generated by ionizing radiation, AlphaScreen SureFire); format: cell-based; conditions: phosphorylated Chk2 in NCI-H460 cells, ionizing radiation 8Gy, 1 hour after test compound treatment; read-out: ATM inhibitory activity
T1 construct: detecting phosphorylation of Chk2 in a human non-small cell lung cancer cell line NCI-H460 (ATCC company); host or cells: NCI-H460 human non-small cell lung cancer cells
T1 sequence (Q13315 whole entry): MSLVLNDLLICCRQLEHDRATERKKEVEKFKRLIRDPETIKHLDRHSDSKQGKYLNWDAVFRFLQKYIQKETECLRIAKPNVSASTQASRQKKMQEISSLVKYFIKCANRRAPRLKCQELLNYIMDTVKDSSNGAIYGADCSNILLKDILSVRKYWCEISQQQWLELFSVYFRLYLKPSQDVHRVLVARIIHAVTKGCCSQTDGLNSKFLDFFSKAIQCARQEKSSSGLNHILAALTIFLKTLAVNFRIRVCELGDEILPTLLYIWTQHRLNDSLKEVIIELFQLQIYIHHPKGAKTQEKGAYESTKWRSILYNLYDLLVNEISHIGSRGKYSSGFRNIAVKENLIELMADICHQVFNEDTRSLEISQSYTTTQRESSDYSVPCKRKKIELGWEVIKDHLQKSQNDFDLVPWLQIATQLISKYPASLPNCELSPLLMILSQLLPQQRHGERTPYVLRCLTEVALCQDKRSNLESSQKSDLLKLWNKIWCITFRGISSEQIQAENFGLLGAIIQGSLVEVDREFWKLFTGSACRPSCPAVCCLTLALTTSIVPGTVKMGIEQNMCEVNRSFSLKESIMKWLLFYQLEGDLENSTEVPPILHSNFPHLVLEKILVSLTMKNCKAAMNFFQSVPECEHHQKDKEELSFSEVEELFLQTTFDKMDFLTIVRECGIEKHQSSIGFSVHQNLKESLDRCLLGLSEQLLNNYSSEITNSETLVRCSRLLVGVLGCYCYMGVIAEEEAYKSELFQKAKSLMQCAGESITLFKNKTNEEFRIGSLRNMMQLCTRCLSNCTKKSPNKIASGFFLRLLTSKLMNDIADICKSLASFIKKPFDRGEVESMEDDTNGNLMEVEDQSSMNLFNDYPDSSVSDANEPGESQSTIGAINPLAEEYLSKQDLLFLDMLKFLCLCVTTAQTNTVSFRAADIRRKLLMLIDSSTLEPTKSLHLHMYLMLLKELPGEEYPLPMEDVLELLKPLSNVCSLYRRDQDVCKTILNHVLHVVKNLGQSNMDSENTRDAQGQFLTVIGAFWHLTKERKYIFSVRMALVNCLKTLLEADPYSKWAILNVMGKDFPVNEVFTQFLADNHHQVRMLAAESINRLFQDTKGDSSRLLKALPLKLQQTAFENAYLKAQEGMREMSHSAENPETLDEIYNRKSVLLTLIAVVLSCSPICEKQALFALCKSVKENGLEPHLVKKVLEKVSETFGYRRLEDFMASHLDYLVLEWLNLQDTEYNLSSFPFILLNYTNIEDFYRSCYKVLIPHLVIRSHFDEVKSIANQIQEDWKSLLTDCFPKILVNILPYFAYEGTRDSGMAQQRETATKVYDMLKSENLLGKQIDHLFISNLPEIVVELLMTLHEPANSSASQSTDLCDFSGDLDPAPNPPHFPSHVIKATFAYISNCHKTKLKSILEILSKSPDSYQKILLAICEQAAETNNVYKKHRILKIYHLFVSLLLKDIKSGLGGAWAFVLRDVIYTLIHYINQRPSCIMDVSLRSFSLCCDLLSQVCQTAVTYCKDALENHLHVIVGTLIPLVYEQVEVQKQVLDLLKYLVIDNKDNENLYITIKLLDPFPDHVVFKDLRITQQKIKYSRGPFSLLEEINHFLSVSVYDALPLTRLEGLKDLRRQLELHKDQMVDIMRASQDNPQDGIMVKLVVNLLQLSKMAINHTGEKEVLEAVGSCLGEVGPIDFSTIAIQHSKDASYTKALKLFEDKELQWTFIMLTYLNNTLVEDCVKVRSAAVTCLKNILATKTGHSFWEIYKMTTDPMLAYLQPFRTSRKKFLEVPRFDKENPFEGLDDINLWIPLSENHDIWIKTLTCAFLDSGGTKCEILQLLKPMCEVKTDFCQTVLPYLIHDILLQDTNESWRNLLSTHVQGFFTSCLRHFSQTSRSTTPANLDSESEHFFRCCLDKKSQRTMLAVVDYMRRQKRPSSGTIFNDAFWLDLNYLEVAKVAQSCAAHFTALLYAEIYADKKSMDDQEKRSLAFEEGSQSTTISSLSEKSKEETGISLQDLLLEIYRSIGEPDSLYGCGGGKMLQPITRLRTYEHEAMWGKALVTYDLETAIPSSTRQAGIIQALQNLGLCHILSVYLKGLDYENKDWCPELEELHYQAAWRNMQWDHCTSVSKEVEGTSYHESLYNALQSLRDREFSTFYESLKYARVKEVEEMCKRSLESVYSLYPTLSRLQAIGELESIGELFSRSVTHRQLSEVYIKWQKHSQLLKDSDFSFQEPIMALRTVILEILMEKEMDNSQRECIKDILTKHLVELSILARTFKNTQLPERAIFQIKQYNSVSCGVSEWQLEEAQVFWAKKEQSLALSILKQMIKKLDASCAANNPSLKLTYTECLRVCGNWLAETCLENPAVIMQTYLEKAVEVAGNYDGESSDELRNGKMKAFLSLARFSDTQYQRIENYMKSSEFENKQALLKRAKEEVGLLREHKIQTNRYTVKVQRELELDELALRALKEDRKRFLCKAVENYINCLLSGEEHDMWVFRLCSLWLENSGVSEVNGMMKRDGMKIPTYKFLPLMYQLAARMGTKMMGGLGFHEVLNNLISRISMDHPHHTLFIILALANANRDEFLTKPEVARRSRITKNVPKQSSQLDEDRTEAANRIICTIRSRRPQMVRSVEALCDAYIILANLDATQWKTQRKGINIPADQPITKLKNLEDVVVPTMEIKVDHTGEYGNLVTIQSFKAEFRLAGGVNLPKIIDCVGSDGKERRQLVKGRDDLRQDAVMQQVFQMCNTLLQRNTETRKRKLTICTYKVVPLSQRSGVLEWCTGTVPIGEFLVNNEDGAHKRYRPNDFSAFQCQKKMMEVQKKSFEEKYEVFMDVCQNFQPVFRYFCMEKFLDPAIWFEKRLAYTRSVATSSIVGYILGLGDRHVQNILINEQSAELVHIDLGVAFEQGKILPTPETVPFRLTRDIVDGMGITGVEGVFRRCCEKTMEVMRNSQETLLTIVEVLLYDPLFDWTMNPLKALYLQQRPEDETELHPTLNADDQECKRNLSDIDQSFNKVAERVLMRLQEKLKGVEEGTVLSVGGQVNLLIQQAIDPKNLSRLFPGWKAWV
Procedure, shortened: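 NCI-H460 cells, compound 1 h pre-treatment, 8Gy IR, further 1 h at 37° C in 5% CO2. Read-out: phospho-Chk2 via AlphaScreen SureFire. % inhibition relative to IR-induced signal window (irradiated vs non-irradiated drug-free wells).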

[1] = system: human non-small cell lung cancer cell line NCI-H460; test: Cell proliferation inhibition test by sensitivity-enhancing to ionizing radiation (Cell Titer Glo); format: cell-based; conditions: concentration in which SER became 2, NCI-H460 cells, ionizing radiation 2 Gy, cultured 120 hour
Procedure, shortened: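 Cells seeded at 2×10^3 cells/mL in RPMI-1640 with 10% FBS; after 24 h, compound added (0.1% DMSO), and 30 min later half the plates irradiated at 2 Gy. After 120 hour at 37° C, viability by Cell Titer Glo luminescence; SER2 is the concentration giving SER of 2 by sigmoidal fit.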

Row | Compound | pIC50 (ATM) | SER2 (concentration at which the radiation sensitivity-enhancement ratio reaches 2) [1] [nM] | SER2 (concentration at which the radiation sensitivity-enhancement ratio reaches 2) ([1]; Homo sapiens, NCI-H460, 120 h) [nM] | SER2 (concentration at which the radiation sensitivity-enhancement ratio reaches 2) ([1]; Homo sapiens) [nM]
1 | Cc1ccc(C(Nc2ccc3c(c2)Sc2cccc(-c4cc(N5CCOCC5)cc(=O)[nH]4)c2S3)C2CC(N(C)C)C2)nc1 (single isomer, unassigned) [Example 1-50-9, 6-(7-(((3-(Dimethylamino)cyclobutyl)(5-methylpyridin-2-yl)methyl)amino)thianthren-1-yl)-4-morpholino pyridin-2 (1H)-one] | > 7.00 | < 100 |  | 
2 | Cc1ccnc(C(C)Nc2ccc3c(c2)Sc2cccc(-c4cc(N5CCOCC5)cc(=O)[nH]4)c2S3)c1 (stereo not drawn) [Example 1-12-29] | > 7.00 |  | < 100 | 
3 | Cc1cccc(C(C)Nc2ccc3c(c2)Sc2cccc(-c4cc(N5CCOCC5)cc(=O)[nH]4)c2S3)n1 (stereo not drawn) [Example 1-12-30, 6-(7-((1-(6-Methylpyridin-2-yl)ethyl)amino)thianthren-1-yl)-4-morpholino pyridin-2 (1H)-one] | > 7.00 |  | < 100 | 
4 | CCN(C)c1cncc(CNc2ccc3c(c2)Cc2cccc(-c4cc(N5CCOCC5)cc(=O)[nH]4)c2O3)c1 [Example 2-21-9, 6-(7-(((5-(Ethyl(methyl)amino)pyridin-3-yl)methyl)amino)-9H-xanthen-4-yl)-4-morpholino pyridin-2(1H)-one] | > 7.00 |  | 500 to 2000 | 
5 | CN1CCC(Nc2ccc3c(c2)Sc2cccc(-c4cc(N5CCOCC5)cc(=O)[nH]4)c2S3)CC1 [Example 1-44-5, 6-(7-((1-Methylpiperidin-4-yl)amino)thianthren-1-yl)-4-morpholino pyridin-2(1H)-one] | > 7.00 |  | 500 to 2000 | 
6 | COc1cc(CNc2ccc3c(c2)Sc2cccc(-c4cc(N5CCOCC5)cc(=O)[nH]4)c2S3)ccn1 [Example 1-44-4, 6-(7-(((2-Methoxypyridin-4-yl)methyl)amino)thianthren-1-yl)-4-morpholino pyridin-2 (1H)-one] | > 7.00 |  | 500 to 2000 | 
7 | CC1CN(CCNc2ccc3c(c2)Sc2cccc(-c4cc(N5CCOCC5)cc(=O)[nH]4)c2S3)CCO1 (stereo not drawn) [Example 1-16-6, 6-(7-((2-(2-Methylmorpholino)ethyl)amino)thianthren-1-yl)-4-morpholinopyridin-2(1H)-one] | > 7.00 |  |  | 100 to 500
8 | CC(Nc1ccc2c(c1)Sc1cccc(-c3cc(N4CCOCC4)cc(=O)[nH]3)c1S2)c1nccc(C(F)F)n1 (stereo not drawn) [Example 1-12-87, 6-(7-((1-(4-(Difluoromethyl)pyrimidin-2-yl)ethyl)amino)thianthren-1-yl)-4-morpholino pyridin-2(1H)-one] | > 7.00 |  | 100 to 500 | 
9 | Cc1cnc(C(C)Nc2ccc3c(c2)Sc2cccc(-c4cc(N5CCOCC5)cc(=O)[nH]4)c2S3)nc1 (stereo not drawn) [Example 1-12-70, 6-(7-((1-(5-Methylpyrimidin-2-yl)ethyl)amino)thianthren-1-yl)-4-morpholino pyridin-2(1H)-one] | > 7.00 |  | < 100 | 
10 | CC(Nc1ccc2c(c1)Sc1cccc(-c3cc(N4CCOCC4)cc(=O)[nH]3)c1S2)c1cnccn1 (stereo not drawn) [Example 1-12-63, 4-Morpholino-6-(7-((1-(pyrazin-2-yl)ethyl)amino)thianthren-1-yl)pyridin-2 (1H)-one] | > 7.00 |  | 100 to 500 | 
11 | COc1cc(CNc2ccc3c(c2)Cc2cccc(-c4cc(N5CCOCC5)cc(=O)[nH]4)c2O3)cnc1OC [Example 2-2-35, 6-(7-(((5,6-Dimethoxypyridin-3-yl)methyl)amino)-9H-xanthen-4-yl)-4-morpholino pyridin-2(1H)-one] | > 7.00 |  | 500 to 2000 | 
12 | CCCN1CCC(Nc2ccc3c(c2)Cc2cccc(-c4cc(N5CCOCC5)cc(=O)[nH]4)c2O3)CC1 [Example 2-28-32, 4-Morpholino-6-(7-((1-propylpiperidin-4-yl)amino)-9H-xanthen-4-yl) pyridin-2(1H)-one] | > 7.00 |  | 500 to 2000 | 
13 | Cc1cccc(C(C)Nc2ccc3c(c2)Cc2cccc(-c4cc(N5CCOCC5)cc(=O)[nH]4)c2O3)n1 (stereo not drawn) [Example 2-14-18, 6-(7-((1-(6-Methylpyridin-2-yl)ethyl)amino)-9H-xanthen-4-yl)-4-morpholino pyridin-2(1H)-one] | 6.30 to 7.00 |  | 100 to 500 | 
14 | CCOc1ccnc(CNc2ccc3c(c2)Cc2cccc(-c4cc(N5CCOCC5)cc(=O)[nH]4)c2O3)c1 [Example 2-13-11, 6-(7-(((4-Ethoxypyridin-2-yl)methyl)amino)-9H-xanthen-4-yl)-4-morpholino pyridin-2(1H)-one] | > 7.00 |  | 100 to 500 | 
15 | O=c1cc(N2CCOCC2)cc(-c2c(F)ccc3c2Oc2ccc(NCc4cccc(Cl)n4)cc2C3)[nH]1 [Example 2-46-1, 6-(7-(((6-Chloropyridin-2-yl)methyl)amino)-3-fluoro-9H-xanthen-4-yl)-4-morpholinopyridin-2(1H)-one] | > 7.00 |  | < 100 | 
16 | O=c1cc(N2CCOCC2)cc(-c2cccc3c2Oc2ccc(NCc4ccc(Cl)nc4)cc2C3)[nH]1 [Example 2-2-3] | 6.30 to 7.00 |  | 100 to 500 | 
17 | O=c1cc(N2CCOCC2)cc(-c2cccc3c2Oc2ccc(NCc4cc(Cl)ccn4)cc2S3)[nH]1 [Example 4-4-2, 6-(8-(((4-Chloropyridin-2-yl)methyl)amino)phenoxathiin-4-yl)-4-morpholino pyridin-2(1H)-one] | > 7.00 |  | 100 to 500 | 
18 | COCC(CN1CCOCC1)Nc1ccc2c(c1)Sc1cccc(-c3cc(N4CCOCC4)cc(=O)[nH]3)c1S2 (racemic) [Example 1-17-1-1, 6-(7-((1-Methoxy-3-morpholinopropan-2-yl)amino)thianthren-1-yl)-4-morpholinopyridin-2(1H)-one] | > 7.00 |  | < 100 | 
19 | Cc1ccc(C(Nc2ccc3c(c2)Sc2cccc(-c4cc(N5CCOCC5)cc(=O)[nH]4)c2S3)C2CCCN(C)C2)nc1 (stereo not drawn) [Example 1-22-10, 6-(7-(((1-Methylpiperidin-3-yl)(5-methylpyridin-2-yl)methyl)amino)thianthren-1-yl)-4-morpholino pyridin-2(1H)-one] | > 7.00 |  | 100 to 500 | 
20 | O=c1cc(N2CCOCC2)cc(-c2cccc3c2Sc2ccc(NC4CCCC4N4CCOCC4)cc2S3)[nH]1 (racemic) [Example 1-16-1-1, 4-morpholino-6-(7-((2-morpholinocyclopentyl)amino)thianthren-1-yl)pyridin-2(1H)-one] | > 7.00 |  | < 100 | 
21 | COc1cnc(C(C)Nc2ccc3c(c2)Sc2cccc(-c4cc(N5CCOCC5)cc(=O)[nH]4)c2S3)cn1 (stereo not drawn) [Example 1-12-114, 6-(7-((1-(5-Methoxypyrazin-2-yl)ethyl)amino)thianthren-1-yl)-4-morpholino pyridin-2(1H) one] | > 7.00 |  | 100 to 500 | 
